Results: patent US8293917B2, “Pyrazole compounds as CCR1 antagonists” (Boehringer Ingelheim International GmbH, priority 2008, dated 2012)

Target: T1, CCR1 (Homo sapiens, UniProt P32246)
T1 construct: host or cells: non-adherent cells
T1 sequence (P32246 1-355): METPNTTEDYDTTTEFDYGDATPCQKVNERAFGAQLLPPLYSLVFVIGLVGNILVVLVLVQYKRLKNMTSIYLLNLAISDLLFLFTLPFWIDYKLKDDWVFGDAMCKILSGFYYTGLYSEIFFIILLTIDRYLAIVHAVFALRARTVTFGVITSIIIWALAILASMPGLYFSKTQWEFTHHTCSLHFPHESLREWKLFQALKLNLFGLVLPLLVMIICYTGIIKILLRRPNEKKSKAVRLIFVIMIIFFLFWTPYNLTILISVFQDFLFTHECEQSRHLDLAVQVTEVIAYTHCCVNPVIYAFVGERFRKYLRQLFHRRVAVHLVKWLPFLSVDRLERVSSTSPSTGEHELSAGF
Assay: functional cellular assay measuring calcium flux in response to MIP1α in CCR1-transfected cells (Method A or Method B)
Type: cell-based
Details: cells stably expressing recombinant CCR1 and G-alpha-16; MIP-1alpha added at EC80; method (A: FLIPR TETRA, B: FDSS6000) not stated per compound
Procedure: Compounds are assessed for the ability to block the interaction of CCR1 and its ligands in a functional cellular assay measuring calcium flux in response to MIP1α in CCR1-transfected cells.
Method A: Non-adherent cells purchased from Chemicon Corporation (HTS005C), stably expressing recombinant CCR1 and G-alpha-16 are grown in RPMI 1640 medium (Mediatech 10-080-CM) supplemented with 10% heat-inactivated FBS, 0.4 mg/mL Geneticin and penicillin/streptomycin. On the day of the assay, the cells are transferred to a beaker and dye-loaded in bulk using a Fluo-4 NW Calcium Assay Kit with probenecid (Invitrogen F36205) at 0.8E6 cells/mL for 1 hour at room temperature. After 1 hour, they are seeded in a 384-well tissue culture-treated plate at a density of 20,000 cells/well. Appropriately diluted test compound is added to the well to achieve a top concentration of 3,000 nM (diluted 3-fold with 10 doses total). The final concentration of DMSO is 1%. The buffer is HBSS (Invitrogen 14025) with 20 mM HEPES at pH 7.4. The cells are allowed to incubate 1 hour in the dark at room temperature. The plates are transferred to the FLIPR TETRA where MIP-1alpha in 1% BSA is added at the EC80 final concentration. Wells +/−MIP-1alpha containing diluted DMSO instead of compound serve as the controls. Intracellular calcium flux is recorded on the FLIPR TETRA, using excitation at 470/495 nm and emission at 515/575 nm. Data are analyzed using Activity Base software.
Method B: Non-adherent cells purchased from Chemicon Corporation (HTS005C), stably expressing recombinant CCR1 and G-alpha-16 are grown in RPMI 1640 medium (Mediatech 10-080-CM) supplemented with 10% FBS, 0.4 mg/mL Geneticin and penicillin/streptomycin. On the day of the assay, the cells are loaded with Calcium 4 dye (Molecular Devices R7448) with Probenecid (Invitrogen P346400) at 8E5 cells/mL for 1 hour at room temperature. After 1 hour, they are seeded in a 384-well tissue culture-treated plate at a density of 20,000 cells/well. Appropriately diluted test compound is added to the well to achieve a top concentration of 3,000 nM (diluted 4-fold with 10 doses total). The final concentration of DMSO is 1%. The buffer is HBSS (Invitrogen 14025) with 20 mM HEPES at pH 7.4. The cells incubate 30 minutes at 37 C and then 30 minutes at room temperature. The plates are transferred to the HAMAMATSU FDSS6000 where MIP-1alpha in 1% BSA is added at the EC80 final concentration. All plates must be read within 4 hours of the start of dye-loading. Wells +/−MIP-1alpha containing diluted DMSO instead of compound serve as the controls. Data are analyzed using Activity Base software.

IC50	SMILES
0.085 µM	CCCC(NC(=O)c1cnn(-c2ccc(Cl)cc2)c1C)c1cncc(S(=O)(=O)C2CC2)c1 (centres unmarked) [1-(4-Chloro-phenyl)-5-methyl-1H-pyrazole-4-carboxylic acid [1-(5-cyclopropanesulfonyl-pyridin-3-yl)-butyl]-amide]
0.0041 µM	CCCC(NC(=O)c1cnn(-c2ccc(Cl)cc2)c1C)c1cncc(S(=O)(=O)NC)c1 (centres unmarked) [1-(4-Chloro-phenyl)-5-methyl-1H-pyrazole-4-carboxylic acid [1-(5-methylsulfamoyl-pyridin-3-yl)-butyl]-amide]
0.01 µM	CCC[C@H](NC(=O)c1cnn(-c2ccc(Cl)cc2)c1C)c1ccc(F)c(C(F)(F)F)c1 [1-(4-Chloro-phenyl)-5-methyl-1H-pyrazole-4-carboxylic acid [(S)-1-(4-fluoro-3-trifluoromethyl-phenyl)-butyl]-amide]
0.013 µM	CC[C@H](NC(=O)c1cnn(-c2ccc(Cl)cc2)c1C)c1ccc(F)c(C(F)(F)F)c1 [1-(4-Chloro-phenyl)-5-methyl-1H-pyrazole-4-carboxylic acid [(S)-1-(4-fluoro-3-trifluoromethyl-phenyl)-propyl]-amide]
0.094 µM	CCCC(NC(=O)c1cnn(-c2ccc(Cl)cc2)c1C)c1cncc(S(=O)(=O)CC)c1 (centres unmarked) [1-(4-Chloro-phenyl)-5-methyl-1H-pyrazole-4-carboxylic acid [1-(5-ethanesulfonyl-pyridin-3-yl)-butyl]-amide]
0.098 µM	CCC[C@H](NC(=O)c1cnn(-c2ccc(Cl)cc2)c1CNC)c1cccc(C(F)(F)F)c1 [1-(4-Chloro-phenyl)-5-methylaminomethyl-1H-pyrazole-4-carboxylic acid [(S)-1-(3-trifluoromethyl-phenyl)-butyl]-amide]
0.08 µM	CCCC(NC(=O)c1cnn(-c2ccc(Cl)cc2)c1C)c1ccnc(S(=O)(=O)CCC(=O)OC)c1 (centres unmarked) [3-[4-(1-{[1-(4-Chloro-phenyl)-5-methyl-1H-pyrazole-4-carbonyl]-amino}-butyl)-pyridine-2-sulfonyl]-propionic acid methyl ester]
0.03 µM	C=CCCC[C@H](NC(=O)c1cnn(-c2ccc(Cl)cc2)c1C)c1cccc(C(F)(F)F)c1 [1-(4-Chloro-phenyl)-5-methyl-1H-pyrazole-4-carboxylic acid [(S)-1-(3-trifluoromethyl-phenyl)-hex-5-enyl]-amide]

More lines, now with the values behind:

SMILES	IC50
CCCC(NC(=O)c1cnn(-c2ccc(Cl)c(Cl)c2)c1C)c1ccnc(S(C)(=O)=O)c1 (centres unmarked) [1-(3,4-Dichloro-phenyl)-5-methyl-1H-pyrazole-4-carboxylic acid [1-(2-methanesulfonyl-pyridin-4-yl)-butyl]-amide]	0.0003 µM
CCCC(NC(=O)c1cnn(-c2ccc(Cl)cc2)c1C)c1ccnc(S(=O)(=O)NC)c1 (centres unmarked) [1-(4-Chloro-phenyl)-5-methyl-1H-pyrazole-4-carboxylic acid [1-(2-methylsulfamoyl-pyridin-4-yl)-butyl]-amide]	0.0029 µM
CCCC(NC(=O)c1cnn(-c2ccc(Cl)cc2)c1C)c1ccnc(S(C)(=O)=O)c1 (centres unmarked) [1-(4-Chloro-phenyl)-5-methyl-1H-pyrazole-4-carboxylic acid [1-(2-methanesulfonyl-pyridin-4-yl)-butyl]-amide]	0.0023 µM
CCCC(NC(=O)c1cnn(-c2ccc(F)c(Cl)c2)c1C)c1ccc(S(C)(=O)=O)nc1 (centres unmarked) [1-(3-Chloro-4-fluoro-phenyl)-5-methyl-1H-pyrazole-4-carboxylic acid [1-(6-methanesulfonyl-pyridin-3-yl)-butyl]-amide]	0.071 µM
CCCC(NC(=O)c1cnn(-c2ccc(Cl)cc2)c1C)c1cncc(Br)c1 (centres unmarked) [1-(4-Chloro-phenyl)-5-methyl-1H-pyrazole-4-carboxylic acid [1-(5-bromo-pyridin-3-yl)-butyl]-amide]	0.0041 µM
CCCC(NC(=O)c1cnn(-c2ccc(Cl)cc2)c1C)c1ccnc(S(=O)(=O)N(C)C)c1 (centres unmarked) [1-(4-Chloro-phenyl)-5-methyl-1H-pyrazole-4-carboxylic acid [1-(2-dimethylsulfamoyl-pyridin-4-yl)-butyl]-amide]	0.0045 µM
